Tested on: migraine episodes in epileptic patients
Assay: Anti-migraine activity in epileptic patients (two case reports, daily topiramate)
Format: in vivo, human
From the text: Patient 1, an epileptic, suffered from complex partial seizures and frequent episodes of migraine, some of which were temporally related to their seizures. Seizures and migraines were incompletely responsive to large doses of calcium channel blockers added to their anti-epileptic drug regimen. Patient 2 suffered from complex partial seizures and frequent, severe migraine episodes, requiring regular use of sumatripan. Patient 1 took topiramate daily for 18 months. Patient 2 took topiramate daily for 10 months.

## CC1(C)O[C@@H]2[C@@H](CO[C@@]3(COS(N)(=O)=O)OC(C)(C)O[C@@H]23)O1 [topiramate, 2,3:4,5-bis-O-(1-methylethydine)-β-D-fructopyranose sulfamate]
Patient 1 (epileptic, complex partial seizures, frequent migraine), 600 mg/d
  improvement in migrainous episodes: substantial improvement in migrainous episodes
Patient 1, after taking 800 mg/d, verapamil, nimodipine and cimetidine withdrawn
  migrainous episodes: had not experienced any migrainous episodes
Patient 1, daily for 18 months
  adverse effects: did not experience any adverse effects
Patient 1, daily for 18 months, except for one migrainous aura, all calcium channel blockers withdrawn
  control of migraine episodes: nearly completely controlled
Patient 2 (epileptic, complex partial seizures, frequent severe migraine), 400 mg/d
  improvement of migraine headaches: substantial improvement of their migraine headaches
Patient 2, after taking 200 mg/d
  frequency of migraine headaches: substantially less frequent migraine headaches
Patient 2, daily for 10 months
  migraine status after the sixth month: migraine-free thereafter until the tenth month
Patient 2, during brief cessation of their propanolol therapy
  migraine episodes in the fifth and sixth months of use: several episodes of basilar migraine without headache
Patient 2, once taking 300 mg/d
  use of sumatriptan rescue medication: eliminating the average use of 2 administrations of sumatriptan per week
